Experimental data published in US20240287138A1, “CYCLIC PEPTIDES FOR INHIBITING TNF RECEPTOR 1 ACTIVITY” (Merck Sharp & Dohme LLC, priority 2023, published 2024).
Numbered stars: 1 amine (or outer) side, 2 acyl side, 3 side chain; on linkers, the order of the positions; unused ones are H or OH. Bridge positions count the residues as written; N and C are the ends. Square brackets hold non-standard residues; d marks the D form. Peptide text beside a SMILES is read from it. Trp(βS-Me,7-OMe) = COc1cccc2c([C@H](C)[C@H](N)C(=O)O)c[nH]c12; cBu(1-CO,cis-3-CH2NH) = O=C([C@H]1C[C@@H](CN[*:1])C1)[*:2]; Trp(7-Br) = N[C@@H](Cc1c[nH]c2c(Br)cccc12)C(=O)O; Trp(7-CN) = N#Cc1cccc2c(C[C@H](N)C(=O)O)c[nH]c12; Trp(7-Cl) = N[C@@H](Cc1c[nH]c2c(Cl)cccc12)C(=O)O; Phe(3-CONH2) = NC(=O)c1cccc(C[C@H](N)C(=O)O)c1; Phe(4-CONH2) = NC(=O)c1ccc(C[C@H](N)C(=O)O)cc1; Phe(4-COOH) = N[C@@H](Cc1ccc(C(=O)O)cc1)C(=O)O; X30 = O=C([C@@H](N[*:1])[C@H](O)c1ccncc1)[*:2]; X2 = C[C@@H]1CC[C@@H](C(=O)[*:2])N([*:1])C1; X1 = O=C([C@@H]1CC[C@H](N[*:1])C1)[*:2]; Pip(4-aza) = O=C(O)[C@@H]1CNCCN1; hPhe = N[C@@H](CCc1ccccc1)C(=O)O; 4Pal = N[C@@H](Cc1ccncc1)C(=O)O; NMeE = CN[C@@H](CCC(=O)O)C(=O)O; dHyp = O=C(O)[C@H]1C[C@H](O)CN1; Ahp(2) = CCCCC[C@H](N)C(=O)O; αMeS = C[C@](N)(CO)C(=O)O; NMeA = CN[C@@H](C)C(=O)O; Nle = CCCC[C@H](N)C(=O)O; Sar = CNCC(=O)O

Assays:
human TNFR2 ECD protein = target: T1, human TNFR2 ECD protein (Homo sapiens, UniProt P20333); assay: SPR off-target binding (selectivity) to human TNFR2 ECD
T1 construct: HRV 3C protease cleavage site (C); 6His (C, cleaved yes); made in house; host or cells: Sf21 insect cells (baculovirus), secreted
T1 sequence (P20333 23-257): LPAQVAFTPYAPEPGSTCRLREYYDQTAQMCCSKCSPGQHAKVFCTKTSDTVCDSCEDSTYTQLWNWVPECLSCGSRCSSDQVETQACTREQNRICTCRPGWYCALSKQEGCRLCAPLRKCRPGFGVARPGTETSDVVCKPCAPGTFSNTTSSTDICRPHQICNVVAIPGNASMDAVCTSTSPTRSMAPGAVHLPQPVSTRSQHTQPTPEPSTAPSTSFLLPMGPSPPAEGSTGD
Summary of the method: (§1)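 Biotinylated avi-tagged human TNFR1 or TNFR2 ECD, expressed in Sf21 insect cells, captured on streptavidin SPR chip; peptide analytes run in 10 mM HEPES pH 7.4, 150 mM NaCl, 3 mM EDTA, 0.05% P20, 2% DMSO. kon and koff measured, affinity KA calculated.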

[1] = target: T2, human TNFR1 extracellular domain (ECD) protein (Homo sapiens, UniProt P19438); assay: SPR binding affinity to captured human TNFR1 ECD
T2 construct: HRV 3C protease cleavage site (C); 6His (C, cleaved yes); made in house; host or cells: Sf21 insect cells (baculovirus), secreted
T2 sequence (P19438 30-211): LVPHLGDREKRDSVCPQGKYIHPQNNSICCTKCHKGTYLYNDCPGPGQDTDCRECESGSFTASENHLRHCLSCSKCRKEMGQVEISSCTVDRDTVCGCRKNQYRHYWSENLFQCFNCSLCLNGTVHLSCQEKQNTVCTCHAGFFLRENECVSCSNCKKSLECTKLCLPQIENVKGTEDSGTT
Summary of the method: as §1

[2] = target: T3, TNFα-induced NF-κB signal transduction pathway (TNFR1 signaling) in THP-1 cells (Homo sapiens, UniProt P19438); assay: THP-1 Lucia NF-κB reporter cell assay, inhibition of TNFα-induced NF-κB signaling; type: cell-based; conditions: THP-1 NF-κB Lucia reporter cells, 10 ng/mL TNFα, 16-18 h, secreted luciferase; read-out: THP-1 IC50
T3 sequence (P19438 30-455): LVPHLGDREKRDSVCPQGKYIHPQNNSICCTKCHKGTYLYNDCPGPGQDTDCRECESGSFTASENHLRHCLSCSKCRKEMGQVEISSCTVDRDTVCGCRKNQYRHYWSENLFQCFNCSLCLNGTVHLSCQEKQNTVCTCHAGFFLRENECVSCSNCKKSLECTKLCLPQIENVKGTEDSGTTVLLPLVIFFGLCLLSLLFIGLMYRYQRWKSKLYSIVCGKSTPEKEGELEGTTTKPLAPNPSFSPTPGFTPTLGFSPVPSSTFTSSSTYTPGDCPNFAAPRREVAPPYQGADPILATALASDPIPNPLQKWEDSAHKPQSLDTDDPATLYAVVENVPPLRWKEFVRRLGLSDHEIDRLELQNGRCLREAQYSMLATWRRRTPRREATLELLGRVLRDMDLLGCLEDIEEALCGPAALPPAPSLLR
Summary of the method: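 IC50 from a 4-parameter logistic fit of secreted luciferase luminescence (QUANTI-Luc), normalised to min/max controls. Reporter THP-1 cells were exposed to peptides for 1 h at 37 °C before 10 ng/mL TNFα (final) was added overnight (16–18 h).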

CCCCC[C@@H]1NC(=O)[C@@H]2CC[C@@H](C2)NC(=O)[C@H]([C@@H](C)c2c[nH]c3c(OC)cccc23)NC(=O)CN(C)C(=O)[C@H](Cc2ccc(C(N)=O)cc2)NC(=O)[C@H](Cc2ccc(C(N)=O)cc2)NC(=O)[C@](C)(CO)NC(=O)[C@H](Cc2c[nH]c3c(C#N)cccc23)NC(=O)[C@H](Cc2ccc(C(=O)O)cc2)NC(=O)[C@H](CC(N)=O)NC(=O)[C@H]2C[C@H](O)CN2C(=O)[C@H](Cc2c[nH]c3ccccc23)NC(=O)[C@H](CO)NC(=O)[C@H]([C@H](O)c2ccncc2)NC1=O [SEQ ID NO. 16] (cyclo([Ahp(2)][X30]SW[dHyp]N[Phe(4-COOH)][Trp(7-CN)][αMeS][Phe(4-CONH2)][Phe(4-CONH2)][Sar][Trp(βS-Me,7-OMe)][X1]))
Kd (human TNFR2 ECD protein): > 1000 nM
Kd [1]: 0.09 nM
IC50 [2]: 0.6 nM

CCCC[C@@H]1NC(=O)CSC[C@@H](C(N)=O)NC(=O)[C@H]([C@@H](C)c2c[nH]c3c(OC)cccc23)NC(=O)CN(C)C(=O)[C@H](Cc2ccc(O)cc2)NC(=O)[C@H](Cc2ccc(C(=O)O)cc2)NC(=O)[C@](C)(CO)NC(=O)[C@H](Cc2c[nH]c3c(Cl)cccc23)NC(=O)[C@H](Cc2ccncc2)NC(=O)[C@H](CC(N)=O)NC(=O)[C@H](CCC(=O)O)N(C)C(=O)[C@H](Cc2c[nH]c3ccccc23)NC(=O)[C@@H]2CC[C@@H](C)CN2C(=O)[C@H](Cc2ccncc2)NC1=O [SEQ ID NO. 272] ({CH2CO}-[Nle][4Pal][X2]W[NMeE]N[4Pal][Trp(7-Cl)][αMeS][Phe(4-COOH)]Y[Sar][Trp(βS-Me,7-OMe)]C-NH2; thioether N-14)
Kd (human TNFR2 ECD protein): > 1000 nM
Kd [1]: 0.1 nM
IC50 [2]: 2.6 nM

C[C@H]1C(=O)N[C@@H](CC(N)=O)C(=O)N[C@@H](Cc2ccncc2)C(=O)N[C@@H](Cc2c[nH]c3ccccc23)C(=O)N[C@@](C)(CO)C(=O)N[C@@H](Cc2ccc(C(=O)O)cc2)C(=O)N[C@@H](CCCNC(=N)N)C(=O)N(C)CC(=O)N[C@@H](Cc2c[nH]c3ccccc23)C(=O)N[C@H](C(N)=O)CSCC(=O)N[C@@H](CCc2ccccc2)C(=O)N[C@@H](Cc2ccc(O)cc2)C(=O)N[C@@H](CO)C(=O)N[C@@H](Cc2c[nH]c3ccccc23)C(=O)N1C [SEQ ID NO. 260] ({CH2CO}-[hPhe]YSW[NMeA]N[4Pal]W[αMeS][Phe(4-COOH)]R[Sar]WC-NH2; thioether N-14)
Kd (human TNFR2 ECD protein): > 1000 nM
Kd [1]: 6 nM
IC50 [2]: 50.1 nM

CCCCC[C@@H]1NC(=O)[C@@H]2CC[C@@H](C2)NC(=O)[C@H]([C@@H](C)c2c[nH]c3c(OC)cccc23)NC(=O)CN(C)C(=O)[C@H](Cc2cccc(C(N)=O)c2)NC(=O)[C@H](Cc2ccc(C(N)=O)cc2)NC(=O)[C@](C)(CO)NC(=O)[C@H](Cc2c[nH]c3c(Br)cccc23)NC(=O)[C@H](Cc2ccc(C(=O)O)cc2)NC(=O)[C@H](CC(N)=O)NC(=O)[C@H]2C[C@H](O)CN2C(=O)[C@H](Cc2c[nH]c3ccccc23)NC(=O)[C@@H]2CNCCN2C(=O)[C@H](Cc2ccncc2)NC1=O [SEQ ID NO. 109] (cyclo([4Pal][Pip(4-aza)]W[dHyp]N[Phe(4-COOH)][Trp(7-Br)][αMeS][Phe(4-CONH2)][Phe(3-CONH2)][Sar][Trp(βS-Me,7-OMe)][X1][Ahp(2)]))
Kd (human TNFR2 ECD protein): > 1000 nM
Kd [1]: 0.05 nM
IC50 [2]: 0.8 nM

CCCC[C@@H]1NC(=O)[C@H]2C[C@@H](CNC(=O)[C@H]([C@@H](C)c3c[nH]c4c(OC)cccc34)NC(=O)CN(C)C(=O)[C@H](Cc3ccc(O)cc3)NC(=O)[C@H](Cc3ccc(C(=O)O)cc3)NC(=O)[C@](C)(CO)NC(=O)[C@H](Cc3c[nH]c4c(Cl)cccc34)NC(=O)[C@H](Cc3ccncc3)NC(=O)[C@H](CC(N)=O)NC(=O)[C@H](CCC(=O)O)N(C)C(=O)[C@H](Cc3c[nH]c4ccccc34)NC(=O)[C@@H]3CNCCN3C(=O)[C@H](Cc3ccncc3)NC1=O)C2 [SEQ ID NO. 268] (cyclo([4Pal][Trp(7-Cl)][αMeS][Phe(4-COOH)]Y[Sar][Trp(βS-Me,7-OMe)][cBu(1-CO,cis-3-CH2NH)][Nle][4Pal][Pip(4-aza)]W[NMeE]N))
Kd (human TNFR2 ECD protein): > 1000 nM
Kd [1]: 0.27 nM
IC50 [2]: 2 nM
